Test results reported in patent US20230159453A1 (COCRYSTAL PHARMA, INC., priority 2020, published 2023).

Biological target: SARS2 protease (Severe acute respiratory syndrome coronavirus 2, UniProt P0DTD1)
Assay: SARS-CoV-2 protease inhibition assay (SARS2 FRET protease assay)
Assay type: biochemical
Conditions: SARS-CoV-2 protease 25 nM, FRET, peptide substrate 1.3 μM, 30 minutes at 30° C., compounds 20 μM to 1.0 nM; read-out: IC50

SMILES | IC50 [nM]
CC(C)C[C@H](NC(=O)OCCCc1ccccc1)C(=O)N[C@@H](C[C@@H]1CCNC1=O)C(=O)C(N)=O [Compound C256] | 320
CC(C)(c1cccc(Cl)c1)C(OC(=O)N[C@@H](CC1CCCCC1)C(=O)N[C@H](C=O)C[C@@H]1CCNC1=O)c1ccccc1 (stereo partly drawn) [Compound C110, 2-(3-Chlorophenyl)-2-methyl-1-phenylpropyl ((S)-3-cyclohexyl-1-oxo-1-(((S)-1-oxo-3-((S)-2-oxopyrrolidin-3-yl)propan-2-yl)amino)propan-2-yl) carbamate] | 1.4
CC1(C)CC(C[C@H](NC(=O)[C@H](CC2CCCCC2)NC(=O)OC2CCCC2Cc2cccc(Cl)c2)C(=O)C(=O)NC2CC2)C(=O)N1 (stereo partly drawn) [Compound C167, 2-(3-Chlorobenzyl)cyclopentyl ((2S)-3-cyclohexyl-1-((4-(cyclopropylamino)-1-(5,5-dimethyl-2-oxopyrrolidin-3-yl)-3,4-dioxobutan-2-yl)amino)-1-oxopropan-2-yl)carbamate] | 2050
CC(=O)N1CCC2(CC1)CC(CC(NC(=O)[C@@H](CC1CCCCC1)NC(=O)c1cc3ccccc3[nH]1)C(=O)C(N)=O)C(=O)N2 (stereo partly drawn) [Compound C112, N-((2R)-1-((1-(8-acetyl-2-oxo-1,8-diazaspiro[4.5]decan-3-yl)-4-amino-3,4-dioxobutan-2-yl)amino)-3-cyclohexyl-1-oxopropan-2-yl)-1H-indole-2-carboxamide] | 185
CC(C)(c1cccc(Cl)c1)C(OC(=O)N[C@@H](CC1CCCCC1)C(=O)N[C@@H](C[C@@H]1CCNC1=O)C(=O)C(=O)NC1CC1)c1ccc(F)cc1 (stereo partly drawn) [Compound C144, 2-(3-Chlorophenyl)-1-(4-fluorophenyl)-2-methylpropyl ((S)-3-cyclohexyl-1-(((S)-4-(cyclopropylamino)-3,4-dioxo-1-((S)-2-oxopyrrolidin-3-yl)butan-2-yl)amino)-1-oxopropan-2-yl) carbamate] | 2020
O=C(O)C(=O)C(CC1CC2(CCCCC2)NC1=O)NC(=O)[C@H](CC1CCCCC1)NC(=O)c1cc2ccccc2[nH]1 (stereo partly drawn) [Compound C228, 3-((S)-3-Cyclohexyl-2-(1H-indole-2-carboxamido)propanamido)-2-oxo-4-(2-oxo-1-azaspiro[4.5]decan-3-yl)butanoic acid] | 120
CCCCCCCOC(=O)N[C@@H](CC1CCCCC1)C(=O)N[C@H](C=O)CCC(=O)N1CCOc2ccccc2C1 [Compound C24, Heptyl ((S)-3-cyclohexyl-1-(((S)-5-(2,3-dihydrobenzo[f][1,4]oxazepin-4(5H)-yl)-1,5-dioxopentan-2-yl)amino)-1-oxopropan-2-yl)carbamate] | > 200000
CC(C)C[C@H](NC(=O)OCC1CCC(F)(F)CC1)C(=O)NC(C)(C=O)CC1CCNC1=O (stereo partly drawn) [Compound C107, (4,4-Difluorocyclohexyl) methyl ((2S)-4-methyl-1-((2-methyl-1-oxo-3-(2-oxopyrrolidin-3-yl)propan-2-yl)amino)-1-oxopentan-2-yl) carbamate] | 6790
CC(C)C[C@H](NC(=O)OC(C)(C)Cc1ccccc1)C(=O)N[C@H](C=O)C[C@@H]1CCNC1=O [Compound C46, 2-Methyl-1-phenylpropan-2-yl ((S)-4-methyl-1-oxo-1-(((S)-1-oxo-3-((S)-2-oxopyrrolidin-3-yl)propan-2-yl)amino)pentan-2-yl) carbamate] | 1380
O=C(N[C@@H](CC1CCCCC1)C(=O)N[C@@H](C[C@@H]1CCNC1=O)C(=O)C(=O)NC1CC1)O[C@@H]1CCC[C@@H]1Cc1cccc(Cl)c1 [Compound C265] | 840
O=C(N[C@@H](CC1CCCCC1)C(=O)N[C@@H](C[C@@H]1CCNC1=O)C(=O)C(=O)NC1CC1)OC1CCCC1Cc1cccc(Cl)c1 (stereo partly drawn) [Compound C151, 2-(3-Chlorobenzyl)cyclopentyl ((S)-3-cyclohexyl-1-(((S)-4-(cyclopropylamino)-3,4-dioxo-1-((S)-2-oxopyrrolidin-3-yl)butan-2-yl)amino)-1-oxopropan-2-yl)carbamate] | 3670
